Measurements reported in patent EP1290011B1 (Oncopeptides AB, priority 2000, dated 2001).

What was measured:
U-937 = experiment: FMCA comparing J1 and AcJ1; format: cell-based; settings: U-937 cell line
Experimental: (§1) The fluorometric microculture cytotoxicity assay (FMCA) (Larsson, R., et al- 1992: Int J Cancer, 50, 177-185) was used to evaluate the compounds. Briefly, 96-well microtiter plates (NUNC, Roskilde, Denmark) are prepared with 20 µl drug solution at ten times the desired concentration and stored for up to two months at -70°C. In general the substances are first dissolved in absolute or acidic ethanol to concentrations of 4.0 to 8.2 mM and further diluted with sterile water or sterile phosphate buffered saline (PBS, Sigma chemicals). All dilutions with water are made directly before the experiments to minimise the influence of mustard hydrolysis. […] At day zero of the experiment 180 µl of cell suspension of adequate concentration is added to the wells of the thawed plate, six wells serve as controls (cell suspension only) and six wells as blanks (cell medium only). After 72 hours incubation the cells are washed once with PBS, and 100 µl of fluorescein diacetate (10 µg/ml) in a physiological buffer is added. After another 45 min the generated fluorescence (ex 485 nm; em 528 nm) is measured in a 96-well scanning fluorometer (Fluoroscan II, Labsystems Oy, Helsinki, Finland). […]

RPMI 8226S = experiment: FMCA comparing J1 and AcJ1; format: cell-based; settings: RPMI 8226S cell line
Experimental: as §1

U937gtb = experiment: cells; format: cell-based, human; settings: U937gtb, lymphoma; 72 hours incubation; read-out: IC50
8226S = experiment: cells; format: cell-based, human; settings: 8226S, myeloma; 72 hours incubation; read-out: IC50
H69 = experiment: cells; format: cell-based, human; settings: H69, small cell lung cancer; 72 hours incubation; read-out: IC50
Solid tumours (PHTC) = experiment: FMCA in PHTC cultures, Table 4, solid; settings: 4 µM; n=12-20; 4320 min
H69AR = experiment: cells; format: cell-based, human; settings: H69AR, doxorubicin resistance; 72 hours incubation; read-out: IC50
CEM/R = experiment: cells; format: cell-based, human; settings: CEM/R; 72 hours incubation; read-out: IC50
Prostate cancer = experiment: Cytotoxic activity in different tumour models; format: cell-based, human; settings: Number 1
NSC Lung cancer = experiment: Cytotoxic activity in different tumour models; format: cell-based, human; settings: Number 8
8226Dox40 = experiment: cells; format: cell-based, human; settings: 8226Dox40, doxorubicin resistance; 72 hours incubation; read-out: IC50
[1] = tested on: Hematological tumours (PHTC); experiment: FMCA in PHTC cultures, Table 4, hematological; settings: 4 µM; n=7-11; 4320 min
Corpus cancer = experiment: Cytotoxic activity in different tumour models; format: cell-based, human; settings: Number 4
U937vcr = experiment: cells; format: cell-based, human; settings: U937vcr, vincristine resistance; 72 hours incubation; read-out: IC50
8226LR5 = experiment: cells; format: cell-based, human; settings: 8226LR5, melphalan resistance; 72 hours incubation; read-out: IC50
Breast cancer = experiment: Cytotoxic activity in different tumour models; format: cell-based, human; settings: Number 4
Ovarian carcinoma = experiment: Cytotoxic activity in different tumour models; format: cell-based, human; settings: Number 8
ACHN = experiment: cells; format: cell-based, human; settings: ACHN, primary resistant renal carcinoma; 72 hours incubation; read-out: IC50
[2] = tested on: panel of ten human tumour cell lines; experiment: cells; format: cell-based; settings: mean over the ten cell lines; read-out: MEAN IC50
[3] = tested on: primary cultures of human tumor cells from patients (PHTC), Total; experiment: FMCA in PHTC cultures, Table 4, total; settings: 4 µM; n=19-31; 4320 min
Adeno-carcinoma = experiment: Cytotoxic activity in different tumour models; format: cell-based, human; settings: Number 5
CEM/S = experiment: cells; format: cell-based, human; settings: CEM/S; 72 hours incubation; read-out: IC50
[4] = tested on: PHTC samples from 9 patients with hematological and 18 patients with solid tumours; experiment: Circumvention of melphalan resistance: FMCA classification of PHTC samples as LDR, IDR, EDR; format: cell-based, human; settings: tested at 4 µM; for Number of samples EDR / Number of samples (%) EDR: Extreme drug resistance; for Number of samples (%) EDR / Number of samples (%) IDR / Number of samples (%) LDR: percent of samples; for Number of samples IDR / Number of samples (%) IDR: Intermediate drug resistance; for Number of samples LDR / Number of samples (%) LDR: Low drug resistance
NCI-H125 = experiment: cells; format: cell-based; settings: NCI-H125, non-small cell lung cancer; read-out: IC50
U-1568 = experiment: cells; format: cell-based; settings: U-1568, non-small cell lung cancer; read-out: IC50
[5] = tested on: hematological fresh human tumour specimens (PHTC); settings: 0.66 µM; n=42; 4320 min
NCI-H611 = experiment: cells; format: cell-based; settings: NCI-H611, non-small cell lung cancer; read-out: IC50
U1285 = experiment: cells; format: cell-based; settings: U1285, small cell lung cancer; read-out: IC50
U-1810 = experiment: cells; format: cell-based; settings: U-1810, non-small cell lung cancer; read-out: IC50
[6] = tested on: fresh human tumour specimens; experiment: FMCA cytotoxic activity in 27 fresh human tumour specimens (Figure 2); format: cell-based; settings: 27 human tumour samples, 14 hematological and 13 solid, comparative statement
U1906L = experiment: cells; format: cell-based; settings: U1906L, small cell lung cancer; read-out: IC50
NCI-H23 = experiment: cells; format: cell-based; settings: NCI-H23, non-small cell lung cancer; read-out: IC50
U-1906E = experiment: cells; format: cell-based; settings: U-1906E, small cell lung cancer; read-out: IC50
NCI-H157 = experiment: cells; format: cell-based; settings: NCI-H157, non-small cell lung cancer; read-out: IC50
U1690 = experiment: cells; format: cell-based; settings: U1690, small cell lung cancer; read-out: IC50
[7] = tested on: solid tumour fresh human tumour specimens (PHTC); settings: 0.66 µM; n=22; 4320 min
U-1752 = experiment: cells; format: cell-based; settings: U-1752, non-small cell lung cancer; read-out: IC50

Structure (SMILES)	IC50 (U937gtb) [nM]	IC50 (8226S) [nM]	IC50 (H69) [nM]	Tumour cell survival index (%) Solid tumours (Solid tumours (PHTC)) [%]	IC50 (H69AR) [nM]	IC50 (CEM/R) [nM]	Median response at 4.0 µM >50% reduction in tumour cell survival (NSC Lung cancer)	IC50 (8226Dox40) [nM]	Tumour cell survival index (%) Hematological tumours [1] [%]	IC50 (U937vcr) [nM]	IC50 (8226LR5) [nM]	Median response at 4.0 µM >50% reduction in tumour cell survival (Breast cancer)	Median response at 4.0 µM >50% reduction in tumour cell survival (Ovarian carcinoma)	IC50 (ACHN) [nM]	IC50 [2] [nM]	Tumour cell survival index (%) Total [3] [%]	Median response at 4.0 µM >50% reduction in tumour cell survival (Adeno-carcinoma)	IC50 (CEM/S) [nM]	Number of samples EDR [4]	Number of samples (%) EDR [4]	other results
CCOC(=O)[C@H](Cc1ccc(F)cc1)NC(=O)[C@H](Cc1ccc(N(CCCl)CCCl)cc1)NC(C)=O [AcJ1, N-Acetyl-L-melphalanyl-L-p-fluorophenylalanine ethyl ester]																					IC50 (U-937): 610 nM; IC50 (RPMI 8226S): 2900 nM
CCOC(=O)[C@H](Cc1ccc(F)cc1)NC(=O)[C@H](Cc1ccc(N(CCCl)CCCl)cc1)NC(=O)[C@@H]1CCCN1.Cl [Example J3, L-Prolinyl-L-melphalanyl-L-p-fluorophenylalanine ethyl ester hydrochloride]	230	1510	200	36.3	1360	20	Yes	5660	7	420	3520	Yes	Yes	1720	1470	25.9	Yes	60	0 (0%)	0 (0%)	Median response at 4.0 µM >50% reduction in tumour cell survival (Prostate cancer): Yes; Median response at 4.0 µM >50% reduction in tumour cell survival (Corpus cancer): Yes; Number of samples IDR [4]: 4; Number of samples (%) IDR [4]: 15%; Number of samples LDR [4]: 23; Number of samples (%) LDR [4]: 85%
CCOC(=O)[C@H](Cc1ccc(F)cc1)NC(=O)[C@@H](N)Cc1ccc(N(CCCl)CCCl)cc1.Cl [Example J1, L-Melphalanyl-L-p-fluorophenylalanine ethyl ester hydrochloride]	70	810	40	56.5	< 9000	10	Yes	1760	6.6	110	2470	Yes	Yes	400	660	40.9	Yes	30	1	6%	IC50 (NCI-H125): 9730 nM; IC50 (U-1568): 1640 nM; Tumour cell survival index % Hematological [5]: 13.7%; IC50 (NCI-H611): 3170 nM; IC50 (U1285): 40 nM; IC50 (U-1810): 10 nM; IC50s (comparison) [6]: in all cases was more active than P2; Median response at 4.0 µM >50% reduction in tumour cell survival (Corpus cancer): No; IC50 (U1906L): 220 nM; IC50 (NCI-H23): 7600 nM; IC50 (U-1906E): 1170 nM; IC50 (NCI-H157): 3900 nM; IC50 (U1690): 1390 nM; Tumour cell survival index % Solid [7]: 46.9%; IC50 (U-1752): 1300 nM; Number of samples IDR [4]: 3; Number of samples (%) IDR [4]: 18%; Number of samples LDR [4]: 13; Number of samples (%) LDR [4]: 76%
CC(C)OC(=O)[C@H](Cc1ccc(F)cc1)NC(=O)[C@@H](N)Cc1ccc(N(CCCl)CCCl)cc1.Cl [JV28, L-Melphalanyl-L-p-fluorophenylalanine isopropyl ester hydrochloride]	100	510	50	44.2	370	40	Yes	890	6.7	150	1880	Yes	Yes	50	410	30.4	Yes	60	1	6%	Median response at 4.0 µM >50% reduction in tumour cell survival (Prostate cancer): Yes; Number of samples IDR [4]: 2; Number of samples (%) IDR [4]: 12%; Number of samples LDR [4]: 14; Number of samples (%) LDR [4]: 82%
